Laboratory results: patent US12421235B2, “Bridged tricyclic carbamoylpyridone compounds and uses thereof” (Gilead Sciences, Inc., priority 2020, dated 2025)

Tests used:
[1] = system: pLai RLuc reporter virus in MT-4 cells; assay: HIV MT-4 serum shift antiviral reporter assay; format: cell-based; conditions: Human immunodeficiency virus 1, MT4, 72 h, read-out: RLUC CCM
Method in brief: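 MT-4 cells pre-infected 2 h with reporter virus, then dosed (1:3 dilutions) in medium with 10% FBS alone or plus 50% human serum; 72 h at 37 °C. Renilla luminescence read; EC50 = 50% signal decrease by sigmoidal fit, serum shift = EC50(HS)/EC50(no HS).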

[2] = Cytotoxicity assay in MT-4 cells; format: cell-based; conditions: human, uninfected MT-4 cells, Cell Titer Glo
Method in brief: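 Uninfected MT-4 cells were incubated with 1:3 serially diluted compound in RPMI/10% FBS for 5 days at 37° C. Viability was read by CellTiter-Glo luminescence, with 10 μM puromycin as the baseline cytotoxicity control. Values are the concentration giving a 50% decrease in luminescence, from sigmoidal dose-response fits.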

[3] = High throughput microsomal stability assay (human liver microsomes); format: in vitro ADME; conditions: human liver microsomes, 1 uM compound, NADPH + UDPGA cofactors, 37 C
Method in brief: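 Compounds at 1 uM final, incubated at 37° C. with liver microsomes (2 mg/ml stock, alamethicin-treated) in pH 7.4 phosphate plus NADPH-regenerating/UDPGA cofactors; samples taken 0–70 min. Parent/IS peak-area ratios read by RapidFire QToF MS; half-life from linear fit of initial log decay, scaled to intrinsic clearance.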

[4] = system: HIV-1 (IIIB) in MT-4 cells; assay: HIV MT-4 antiviral assay; format: cell-based; conditions: Human immunodeficiency virus 1, MT4, 120 h, 5 days, Cell Titer Glo
Method in brief: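 MT-4 cells infected with HIV-1 IIIB (1:250 dilution of concentrated stock) were incubated 5 days at 37 °C with compound in 1:3 serial dilutions in RPMI/10% FBS. Viability was read by CellTiter-Glo luminescence. EC50 was the concentration causing a 50% decrease in luminescence signal, from sigmoidal dose-response fits.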

Row | Compound | EC50 [1] | CC50 at 5 days [2] | HLM stability [3] | EC50 [4]
1 | CO[C@@]1(C)CC[C@H](C)N2C[C@H]1n1cc(C(=O)NCc3c(F)cc(F)cc3F)c(=O)c(O)c1C2=O [Example 23, (3S,6S,7R)-12-hydroxy-6-methoxy-3,6-dimethyl-1,11-dioxo-N-(2,4,6-trifluorobenzyl)-1,4,5,6,7,11-hexahydro-3H-2,7-methanopyrido[1,2-a][1,4]diazonine-10-carboxamide] | 0.47 nM | 9790 nM | 12 mL/min/kg | 2.2 nM
2 | CCO[C@H]1C=C[C@H](C)N2C[C@H]1n1cc(C(=O)NCc3c(F)cc(F)cc3F)c(=O)c(O)c1C2=O [Example 25, (3S,6S,7R)-6-ethoxy-12-hydroxy-3-methyl-1,11-dioxo-N-(2,4,6-trifluorobenzyl)-1,6,7,11-tetrahydro-3H-2,7-methanopyrido[1,2-a][1,4]diazonine-10-carboxamide] | 0.82 nM | 43700 nM | 9.67 mL/min/kg | 4.1 nM
3 | CCO[C@H]1CC[C@H](C)N2C[C@H]1n1cc(C(=O)NCc3c(F)cc(F)cc3F)c(=O)c(O)c1C2=O [Example 26, (3S,6S,7R)-6-ethoxy-12-hydroxy-3-methyl-1,11-dioxo-N-(2,4,6-trifluorobenzyl)-1,4,5,6,7,11-hexahydro-3H-2,7-methanopyrido[1,2-a][1,4]diazonine-10-carboxamide] | 0.92 nM | 44300 nM | 3.67 mL/min/kg | 4.4 nM
4 | C[C@H]1CC[C@H](OC(F)F)[C@H]2CN1C(=O)c1c(O)c(=O)c(C(=O)NCc3c(F)cc(F)cc3F)cn12 [Example 27, (3S,6S,7R)-6-(difluoromethoxy)-12-hydroxy-3-methyl-1,11-dioxo-N-(2,4,6-trifluorobenzyl)-1,4,5,6,7,11-hexahydro-3H-2,7-methanopyrido[1,2-a][1,4]diazonine-10-carboxamide] | 0.35 nM | 13600 nM | 14.7 mL/min/kg | 1.1 nM
5 | CC[C@]1(O)CC[C@H](C)N2C[C@H]1n1cc(C(=O)NCc3c(F)cc(F)cc3F)c(=O)c(O)c1C2=O [Example 28, (3S,6S,7R)-6-ethyl-6,12-dihydroxy-3-methyl-1,11-dioxo-N-(2,4,6-trifluorobenzyl)-1,4,5,6,7,11-hexahydro-3H-2,7-methanopyrido[1,2-a][1,4]diazonine-10-carboxamide] | 0.96 nM | 24400 nM | 5.67 mL/min/kg | 4.1 nM
6 | [2H]C([2H])([2H])[C@]1(O)C=C[C@H](C)N2C[C@H]1n1cc(C(=O)NCc3c(F)cc(F)cc3F)c(=O)c(O)c1C2=O [Example 29, (1R,10S,13S)-6,13-dihydroxy-10-methyl-5,8-dioxo-13-(trideuteriomethyl)-N-[(2,4,6-trifluorophenyl)methyl]-2,9-diazatricyclo[7.4.1.02,7]tetradeca-3,6,11-triene-4-carboxamide] | 0.74 nM | 13000 nM | 1.83 mL/min/kg | 2 nM
7 | [2H]C([2H])([2H])[C@]1(O)CC[C@H](C)N2C[C@H]1n1cc(C(=O)NCc3ccc(F)cc3F)c(=O)c(O)c1C2=O [Example 31, (1R,10S,13S)—N-[(2,4-difluorophenyl)methyl]-6,13-dihydroxy-10-methyl-5,8-dioxo-13-(trideuteriomethyl)-2,9-diazatricyclo[7.4.1.02,7]tetradeca-3,6-diene-4-carboxamide] | 0.36 nM | 8230 nM | 3 mL/min/kg | 2.1 nM
8 | C[C@H]1CC[C@@](C)(O)[C@H]2CN1C(=O)c1c(O)c(=O)c(C(=O)NCc3ccc(F)cc3F)cn12 [Example 33, (1R,10S,13R)—N-[(2,4-difluorophenyl)methyl]-6,13-dihydroxy-10,13-dimethyl-5,8-dioxo-2,9-diazatricyclo[7.4.1.02,7]tetradeca-3,6-diene-4-carboxamide] | 0.36 nM | 22800 nM | 5.83 mL/min/kg | 2.1 nM
9 | [2H]C([2H])([2H])O[C@H]1CC[C@H](C)N2C[C@H]1n1cc(C(=O)NCc3ccc(F)cc3F)c(=O)c(O)c1C2=O [Example 34, (3S,6S,7R)—N-(2,4-difluorobenzyl)-12-hydroxy-6-(methoxy-d3)-3-methyl-1,11-dioxo-1,4,5,6,7,11-hexahydro-3H-2,7-methanopyrido[1,2-a][1,4]diazonine-10-carboxamide] | 0.42 nM | 15100 nM | 4.17 mL/min/kg | 0.9 nM
10 | CO[C@@H]1C[C@H](F)[C@H](C)N2C[C@H]1n1cc(C(=O)NCc3c(F)cc(F)cc3F)c(=O)c(O)c1C2=O [Example 37, (3S,4S,6R,7R)-4-fluoro-12-hydroxy-6-methoxy-3-methyl-1,11-dioxo-N-(2,4,6-trifluorobenzyl)-1,4,5,6,7,11-hexahydro-3H-2,7-methanopyrido[1,2-a][1,4]diazonine-10-carboxamide] | 0.65 nM | 14800 nM | 2.83 mL/min/kg | 1.4 nM
11 | CO[C@H]1C[C@@H](F)[C@H](C)N2C[C@H]1n1cc(C(=O)NCc3c(F)cc(F)cc3F)c(=O)c(O)c1C2=O [Example 39, (3S,4R,6S,7R)-4-fluoro-12-hydroxy-6-methoxy-3-methyl-1,11-dioxo-N-(2,4,6-trifluorobenzyl)-1,4,5,6,7,11-hexahydro-3H-2,7-methanopyrido[1,2-a][1,4]diazonine-10-carboxamide] | 1.5 nM | 11700 nM | 4.67 mL/min/kg | 1.5 nM
12 | CO[C@H]1C[C@H](F)[C@H](C)N2C[C@H]1n1cc(C(=O)NCc3c(F)cc(F)cc3F)c(=O)c(O)c1C2=O [Example 40, (3S,4S,6S,7R)-4-fluoro-12-hydroxy-6-methoxy-3-methyl-1,11-dioxo-N-(2,4,6-trifluorobenzyl)-1,4,5,6,7,11-hexahydro-3H-2,7-methanopyrido[1,2-a][1,4]diazonine-10-carboxamide] | 2.87 nM | 19600 nM | 4.67 mL/min/kg | 1.1 nM
13 | CO[C@H]1CC[C@H](CF)N2C[C@H]1n1cc(C(=O)NCc3ccc(F)cc3F)c(=O)c(O)c1C2=O [Example 41, (3R,6S,7R)—N-(2,4-difluorobenzyl)-3-(fluoromethyl)-12-hydroxy-6-methoxy-1,11-dioxo-1,4,5,6,7,11-hexahydro-3H-2,7-methanopyrido[1,2-a][1,4]diazonine-10-carboxamide] | 0.56 nM | 19400 nM | 1.83 mL/min/kg | 1.7 nM
14 | CO[C@H]1CC[C@@H](C)N2C[C@H]1n1cc(C(=O)NCc3ccc(F)cc3F)c(=O)c(O)c1C2=O [Example 42, (3R,6S,7R)—N-(2,4-difluorobenzyl)-12-hydroxy-6-methoxy-3-methyl-1,11-dioxo-1,4,5,6,7,11-hexahydro-3H-2,7-methanopyrido[1,2-a][1,4]diazonine-10-carboxamide] | 0.61 nM | 50000 nM | 9.67 mL/min/kg | 1.9 nM
15 | C[C@H]1CC[C@H](O)[C@@]2(C)CN1C(=O)c1c(O)c(=O)c(C(=O)NCc3ccc(F)cc3F)cn12 [Example 43, (3S,6S,7R)—N-(2,4-difluorobenzyl)-6,12-dihydroxy-3,7-dimethyl-1,11-dioxo-1,4,5,6,7,11-hexahydro-3H-2,7-methanopyrido[1,2-a][1,4]diazonine-10-carboxamide] | 0.71 nM | 23600 nM | 4.83 mL/min/kg | 1.3 nM
16 | C[C@H]1CC[C@@](O)(CF)[C@H]2CN1C(=O)c1c(O)c(=O)c(C(=O)NCc3c(F)cc(F)cc3F)cn12 [Example 44, (3S,6S,7R)-6-(fluoromethyl)-6,12-dihydroxy-3-methyl-1,11-dioxo-N-(2,4,6-trifluorobenzyl)-1,4,5,6,7,11-hexahydro-3H-2,7-methanopyrido[1,2-a][1,4]diazonine-10-carboxamide] | 1.9 nM | 44700 nM | 3.67 mL/min/kg | 4 nM
17 | C[C@H]1[C@H]2CO[C@H](C2)[C@H]2CN1C(=O)c1c(O)c(=O)c(C(=O)NCc3ccc(F)cc3F)cn12 [Example 45, (3S,4S,7R,8R)—N-(2,4-difluorobenzyl)-13-hydroxy-3-methyl-1,12-dioxo-1,4,5,7,8,12-hexahydro-3H-2,8:4,7-dimethanopyrido[1,2-d][1,4,7]oxadiazecine-11-carboxamide] | 0.46 nM | 12400 nM | 2.83 mL/min/kg | 1.9 nM
